Source: PubChem BioAssay AID220 (DTP/NCI, 2004)
Results filed as inconclusive are left out.

System: CD8F1 mice, subcutaneous mammary adenocarcinoma, T/C%
Assay: NCI In Vivo Anticancer Drug Screen. Data for tumor model Mammary Adenocarcinoma CD8F1 (subcutaneous) in CD8F1
Details: higher = larger tumour
Outline: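 Transplantable tumors were established in mice, animals were dosed with compound or vehicle, and survival or tumor size was then measured in both groups. The treated result was divided by the control result.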

[1] = endpoint: median tumor weight (est.), dose: 12.5 mg/kg/injection, schedule: Q07DX005 (ip), vehicle: Klucel (hydroxypropylcellulose) (HPC)
[2] = endpoint: median tumor weight (est.), dose: 25.0 mg/kg/injection, schedule: Q07DX005 (ip), vehicle: Klucel (hydroxypropylcellulose) (HPC)
[3] = endpoint: median tumor weight (est.), dose: 50.0 mg/kg/injection, schedule: Q07DX005 (ip), vehicle: Klucel (hydroxypropylcellulose) (HPC)
[4] = endpoint: median tumor weight (est.), dose: 100.0 mg/kg/injection, schedule: Q07DX005 (ip), vehicle: Klucel (hydroxypropylcellulose) (HPC)

In the case of CNC(=O)OCc1c(COC(=O)NC)c(C)n(-c2ccc(OC)cc2)c1C, the T/C (endpoint: median tumor weight (est.), dose: 6.25 mg/kg/injection, schedule: Q07DX005 (ip), vehicle: Klucel (hydroxypropylcellulose) (HPC)) is reported as 113 % of control, the T/C [1] is reported as 90 % of control and the T/C [2] is reported as 152 % of control. The T/C [3] was 23 % of control, the T/C [4] was 24 % of control and the T/C (endpoint: median tumor weight change, dose: 50.0 mg/kg/injection, schedule: Q01DX001 (ip), vehicle: Klucel (hydroxypropylcellulose) (HPC)) was 109 % of control. The T/C (endpoint: median tumor weight change, dose: 200.0 mg/kg/injection, schedule: Q01DX001 (ip), vehicle: Klucel (hydroxypropylcellulose) (HPC)) was 79 % of control and the T/C (endpoint: median tumor weight change, dose: 400.0 mg/kg/injection, schedule: Q01DX001 (ip), vehicle: Klucel (hydroxypropylcellulose) (HPC)) was 52 % of control.

In the case of S=P(N1CC1)(N1CC1)N1CC1, the T/C (endpoint: mean tumor weight, dose: 1.0 mg/kg/injection, schedule: Q01DX009 (ip), vehicle: saline) is reported as 45 % of control, the T/C (endpoint: mean tumor weight, dose: 2.0 mg/kg/injection, schedule: Q01DX009 (ip), vehicle: saline) is reported as 7 % of control and the T/C (endpoint: mean tumor weight, dose: 4.0 mg/kg/injection, schedule: Q07DX005 (ip), vehicle: saline) is reported as 354 % of control. The T/C (endpoint: mean tumor weight, dose: 4.0 mg/kg/injection, schedule: Q07DX006 (ip), vehicle: saline) was 20 % of control, the T/C (endpoint: mean tumor weight, dose: 4.0 mg/kg/injection, schedule: Q07DX007 (ip), vehicle: saline) was 1 % of control and the T/C (endpoint: mean tumor weight, dose: 8.0 mg/kg/injection, schedule: Q07DX005 (ip), vehicle: saline) was 597 % of control. The T/C (endpoint: mean tumor weight, dose: 8.0 mg/kg/injection, schedule: Q07DX006 (ip), vehicle: saline) was 3 % of control, the T/C (endpoint: mean tumor weight, dose: 8.0 mg/kg/injection, schedule: Q07DX007 (ip), vehicle: saline) was 6 % of control and the T/C (endpoint: mean tumor weight, dose: 16.0 mg/kg/injection, schedule: Q07DX005 (ip), vehicle: saline) was 61 % of control. The T/C (endpoint: median tumor weight (est.), dose: 0.5 mg/kg/injection, schedule: Q07DX005 (ip), vehicle: saline) was 96 % of control, the T/C (endpoint: median tumor weight (est.), dose: 1.0 mg/kg/injection, schedule: Q07DX005 (ip), vehicle: saline) was 157 % of control and the T/C (endpoint: median tumor weight (est.), dose: 2.0 mg/kg/injection, schedule: Q07DX005 (ip), vehicle: saline) was 159 % of control. For the same compound, the T/C (endpoint: median tumor weight (est.), dose: 4.0 mg/kg/injection, schedule: Q07DX005 (ip), vehicle: saline) was 42 % of control and the T/C (endpoint: median tumor weight (est.), dose: 8.0 mg/kg/injection, schedule: Q07DX005 (ip), vehicle: saline) was 15 % of control.

For CCc1ncnc2cc(OCC3CO3)c(OC)cc12 (stereo not drawn), the T/C (endpoint: median tumor weight change, dose: 25.0 mg/kg/injection, schedule: Q01DX001 (ip), vehicle: suspension in saline) was 118 % of control, the T/C (endpoint: median tumor weight change, dose: 50.0 mg/kg/injection, schedule: Q01DX001 (ip), vehicle: suspension in saline) was 110 % of control and the T/C (endpoint: median tumor weight change, dose: 100.0 mg/kg/injection, schedule: Q01DX001 (ip), vehicle: suspension in saline) was 35 % of control. For the same compound, the T/C (endpoint: median tumor weight change, dose: 400.0 mg/kg/injection, schedule: Q01DX001 (ip), vehicle: suspension in saline) was 93 % of control.

COC12C(COC(N)=O)C3=C(C(=O)C(C)=C(N)C3=O)N1CC1C2N1C (stereo not drawn) was tested, and the T/C (endpoint: median tumor weight (est.), dose: 2.0 mg/kg/injection, schedule: Q07DX005 (ip), vehicle: suspension in saline) was 53 % of control, the T/C (endpoint: median tumor weight (est.), dose: 4.0 mg/kg/injection, schedule: Q07DX005 (ip), vehicle: suspension in saline) was 73 % of control and the T/C (endpoint: median tumor weight (est.), dose: 8.0 mg/kg/injection, schedule: Q07DX005 (ip), vehicle: suspension in saline) was 3 % of control.

With ClCC[N+]12CC[N+](CCCl)(CC1)C2 (tested in a mixture with another compound) the T/C (endpoint: median tumor weight (est.), dose: 25.0 mg/kg/injection, schedule: Q07DX005 (ip), vehicle: saline) was 75 % of control, the T/C (endpoint: median tumor weight (est.), dose: 50.0 mg/kg/injection, schedule: Q07DX005 (ip), vehicle: saline) was 67 % of control and the T/C (endpoint: median tumor weight (est.), dose: 100.0 mg/kg/injection, schedule: Q07DX005 (ip), vehicle: saline) was 93 % of control. The T/C (endpoint: median tumor weight (est.), dose: 200.0 mg/kg/injection, schedule: Q07DX005 (ip), vehicle: saline) was 43 % of control, the T/C (endpoint: median tumor weight (est.), dose: 400.0 mg/kg/injection, schedule: Q07DX005 (ip), vehicle: saline) was 43 % of control and the T/C (endpoint: median tumor weight (est.), dose: 600.0 mg/kg/injection, schedule: Q07DX005 (ip), vehicle: saline) was 12 % of control.

For CC1(C)COCN1COCCOCN1COCC1(C)C, the T/C (endpoint: median tumor weight change, dose: 25.0 mg/kg/injection, schedule: Q01DX001 (ip), vehicle: saline) was 100 % of control, the T/C (endpoint: median tumor weight change, dose: 50.0 mg/kg/injection, schedule: Q01DX001 (ip), vehicle: saline) was 109 % of control and the T/C (endpoint: median tumor weight change, dose: 100.0 mg/kg/injection, schedule: Q01DX001 (ip), vehicle: saline) was 95 % of control.

For COc1ccc(OC)c(/C=C/c2ccnc3ccccc23)c1, the T/C (endpoint: median tumor weight (est.), dose: 12.5 mg/kg/injection, schedule: Q07DX005 (ip), vehicle: saline with Tween-80) was 77 % of control, the T/C (endpoint: median tumor weight (est.), dose: 25.0 mg/kg/injection, schedule: Q07DX005 (ip), vehicle: saline with Tween-80) was 93 % of control and the T/C (endpoint: median tumor weight (est.), dose: 50.0 mg/kg/injection, schedule: Q07DX005 (ip), vehicle: saline with Tween-80) was 78 % of control. The T/C (endpoint: median tumor weight (est.), dose: 100.0 mg/kg/injection, schedule: Q07DX005 (ip), vehicle: saline with Tween-80) was 67 % of control, the T/C (endpoint: median tumor weight (est.), dose: 200.0 mg/kg/injection, schedule: Q07DX005 (ip), vehicle: saline with Tween-80) was 86 % of control and the T/C (endpoint: median tumor weight (est.), dose: 400.0 mg/kg/injection, schedule: Q07DX005 (ip), vehicle: saline with Tween-80) was 71 % of control.

With O=C(O)c1c2c(nc3ccccc13)Cc1ccccc1-2 the T/C [1] was 96 % of control, the T/C (endpoint: median tumor weight (est.), dose: 12.5 mg/kg/injection, schedule: Q07DX005 (ip), vehicle: water) was 6 % of control and the T/C [2] was 119 % of control. For the same compound, the T/C (endpoint: median tumor weight (est.), dose: 25.0 mg/kg/injection, schedule: Q07DX005 (ip), vehicle: water) was 89 % of control, the T/C [3] was 98 % of control and the T/C (endpoint: median tumor weight (est.), dose: 50.0 mg/kg/injection, schedule: Q07DX005 (ip), vehicle: water) was 59 % of control. The T/C [4] was 97 % of control, the T/C (endpoint: median tumor weight (est.), dose: 100.0 mg/kg/injection, schedule: Q07DX005 (ip), vehicle: water) was 87 % of control and the T/C (endpoint: median tumor weight (est.), dose: 200.0 mg/kg/injection, schedule: Q07DX005 (ip), vehicle: Klucel (hydroxypropylcellulose) (HPC)) was 57 % of control. The T/C (endpoint: median tumor weight (est.), dose: 200.0 mg/kg/injection, schedule: Q07DX005 (ip), vehicle: water) was 60 % of control.

For [I][Hg][CH2]C1COC([CH2][Hg][I])CO1 (stereo not drawn), the T/C (endpoint: median tumor weight (est.), dose: 6.25 mg/kg/injection, schedule: Q07DX005 (ip), vehicle: suspension in saline) was 103 % of control, the T/C (endpoint: median tumor weight (est.), dose: 12.5 mg/kg/injection, schedule: Q07DX005 (ip), vehicle: suspension in saline) was 167 % of control and the T/C (endpoint: median tumor weight (est.), dose: 25.0 mg/kg/injection, schedule: Q07DX005 (ip), vehicle: suspension in saline) was 227 % of control. The T/C (endpoint: median tumor weight (est.), dose: 50.0 mg/kg/injection, schedule: Q07DX005 (ip), vehicle: suspension in saline) was 27 % of control.

For O=CC(O)C(O)C(O)C(O)CO (stereo not drawn), the T/C (endpoint: median tumor weight change, dose: 75.0 mg/kg/injection, schedule: Q01DX001 (ip), vehicle: saline) was 66 % of control, the T/C (endpoint: median tumor weight change, dose: 150.0 mg/kg/injection, schedule: Q01DX001 (ip), vehicle: saline) was 43 % of control and the T/C (endpoint: median tumor weight change, dose: 300.0 mg/kg/injection, schedule: Q01DX001 (ip), vehicle: saline) was 61 % of control. For the same compound, the T/C (endpoint: median tumor weight change, dose: 600.0 mg/kg/injection, schedule: Q01DX001 (ip), vehicle: saline) was 35 % of control and the T/C (endpoint: median tumor weight change, dose: 1200.0 mg/kg/injection, schedule: Q01DX001 (ip), vehicle: saline) was 55 % of control.

With O=S(=O)(O)O.[NH-]C1CCCCC1[NH-].[Pt+2] (stereo not drawn) the T/C (endpoint: mean tumor weight, dose: 0.63 mg/kg/injection, schedule: Q07DX006 (ip), vehicle: water) was 54 % of control, the T/C (endpoint: mean tumor weight, dose: 1.25 mg/kg/injection, schedule: Q07DX006 (ip), vehicle: water) was 44 % of control and the T/C (endpoint: mean tumor weight, dose: 2.5 mg/kg/injection, schedule: Q07DX006 (ip), vehicle: water) was 4 % of control. For the same compound, the T/C (endpoint: mean tumor weight, dose: 5.0 mg/kg/injection, schedule: Q07DX006 (ip), vehicle: water) was 1 % of control, the T/C (endpoint: median tumor weight (est.), dose: 0.63 mg/kg/injection, schedule: Q07DX005 (ip), vehicle: dextrose) was 81 % of control and the T/C (endpoint: median tumor weight (est.), dose: 0.63 mg/kg/injection, schedule: Q07DX005 (ip), vehicle: water) was 74 % of control. For the same compound, the T/C (endpoint: median tumor weight (est.), dose: 1.25 mg/kg/injection, schedule: Q07DX005 (ip), vehicle: dextrose) was 41 % of control, the T/C (endpoint: median tumor weight (est.), dose: 1.25 mg/kg/injection, schedule: Q07DX005 (ip), vehicle: water) was 55 % of control and the T/C (endpoint: median tumor weight (est.), dose: 2.5 mg/kg/injection, schedule: Q07DX005 (ip), vehicle: dextrose) was 83 % of control. The T/C (endpoint: median tumor weight (est.), dose: 2.5 mg/kg/injection, schedule: Q07DX005 (ip), vehicle: water) was 41 % of control, the T/C (endpoint: median tumor weight (est.), dose: 5.0 mg/kg/injection, schedule: Q07DX005 (ip), vehicle: dextrose) was 33 % of control and the T/C (endpoint: median tumor weight (est.), dose: 5.0 mg/kg/injection, schedule: Q07DX005 (ip), vehicle: water) was 3 % of control.

In the case of CN(C)N=Nc1cccc(C(N)=O)c1, the T/C (endpoint: median tumor weight (est.), dose: 20.0 mg/kg/injection, schedule: Q07DX005 (ip), vehicle: Klucel (hydroxypropylcellulose) (HPC)) is reported as 80 % of control and the T/C (endpoint: median tumor weight (est.), dose: 160.0 mg/kg/injection, schedule: Q07DX005 (ip), vehicle: Klucel (hydroxypropylcellulose) (HPC)) is reported as 54 % of control.

For O=Cc1ccc(O)c(O)c1, the T/C (endpoint: median tumor weight (est.), dose: 100.0 mg/kg/injection, schedule: Q07DX005 (ip), vehicle: suspension in saline) was 160 % of control.
